From ChEMBL document CHEMBL3734661, “The chemistry and pharmacology of privileged pyrroloquinazolines” (Medchemcomm, 2015)
Substitutions are numbered along the chain they refer to. Converted amounts (≈) assume the structure as drawn.

Tests used:
[1] = Cytotoxic activity against human HL60 cells; format: functional, cell-based; details: HL-60
Dihydrofolate reductase [2] = molecular target: T1, Dihydrofolate reductase (Homo sapiens, UniProt P00374); assay: Competitive inhibition of human recombinant DHFR preincubated for 2 mins followed by substrate addition in presence of dihydrofolate
T1 sequence (P00374 whole entry): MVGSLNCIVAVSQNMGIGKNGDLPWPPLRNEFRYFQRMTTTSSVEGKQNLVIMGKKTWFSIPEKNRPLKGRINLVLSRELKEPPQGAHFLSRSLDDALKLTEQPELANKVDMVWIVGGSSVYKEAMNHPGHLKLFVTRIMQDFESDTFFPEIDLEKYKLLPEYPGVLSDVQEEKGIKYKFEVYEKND

[3] = Tmax in Beagle dog at 5 mg/kg, po; format: ADME, organism-based, Canis lupus familiaris; details: in vivo
[4] = Half life in Beagle dog at 5 mg/kg, po; format: ADME, organism-based, Canis lupus familiaris; details: in vivo
[5] = Volume of distribution in Beagle dog at 2.5 mg/kg, iv; format: ADME, organism-based, Canis lupus familiaris; details: in vivo
[6] = Cmax in Beagle dog at 5 mg/kg, po after 1.8 hrs; format: ADME, organism-based, Canis lupus familiaris; set-up: dose 5 mg/kg, route oral; details: in vivo
[7] = Half life in Beagle dog at 2.5 mg/kg, iv; format: ADME, organism-based, Canis lupus familiaris; details: in vivo
[8] = Oral bioavailability in Beagle dog at 5 mg/kg; format: ADME, organism-based, Canis lupus familiaris; details: in vivo
[9] = Cytotoxicity against human HCT8 cells assessed as growth inhibition by MTT assay; format: functional; details: HCT-8
Candida albicans = assay: Antifungal activity against Candida albicans after 24 hrs by microtiter method; format: functional
Human alphaherpesvirus 1 = assay: Antiviral activity against HSV1 after 1.5 hrs by microtiter plate reader analysis; details: Human alphaherpesvirus 1, 1.5 h
Plasmodium falciparum [10] = assay: Antimalarial activity against Plasmodium falciparum W-2 assessed as [3H]hypoxantine incorporation preincubated for 48 hrs followed by [3H]hypoxantine addition measured after 18 hrs by scintillation counting analysis; format: functional, organism-based
Plasmodium falciparum [11] = assay: Antimalarial activity against Plasmodium falciparum RCS assessed as [3H]hypoxantine incorporation preincubated for 48 hrs followed by [3H]hypoxantine addition measured after 18 hrs by scintillation counting analysis; format: functional, organism-based
Plasmodium falciparum [12] = assay: Antimalarial activity against Plasmodium falciparum D6 assessed as [3H]hypoxantine incorporation preincubated for 48 hrs followed by [3H]hypoxantine addition measured after 18 hrs by scintillation counting analysis; format: functional, organism-based
[13] = Therapeutic index, ratio of MTD for Sprague-Dawley rat to MCD for Plasmodium berghei infected in Sprague-Dawley rat; details: read-out: TI
Plasmodium falciparum [14] = assay: Antimalarial activity against Plasmodium falciparum TM91C235 assessed as [3H]hypoxantine incorporation preincubated for 48 hrs followed by [3H]hypoxantine addition measured after 18 hrs by scintillation counting analysis; format: functional, organism-based
Dihydrofolate reductase [15] = molecular target: T2, Dihydrofolate reductase (Rattus norvegicus, UniProt Q920D2); assay: Inhibition of rat DHFR extracted from liver using dihydrofolate as substrate preincubated for 5 mins followed by substrate addition by spectrofluorometric analysis
T2 sequence (Q920D2 whole entry): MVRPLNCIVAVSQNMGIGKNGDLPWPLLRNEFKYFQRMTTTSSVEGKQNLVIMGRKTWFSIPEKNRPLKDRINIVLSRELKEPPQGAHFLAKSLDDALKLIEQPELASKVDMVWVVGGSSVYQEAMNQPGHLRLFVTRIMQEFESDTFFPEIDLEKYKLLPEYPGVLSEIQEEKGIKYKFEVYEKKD

Dihydrofolate reductase [16] = molecular target: T3, Dihydrofolate reductase (Mus musculus, UniProt P00375); assay: Inhibition of DHFR in mouse L1210 cells using dihydrofolate as substrate preincubated for 5 mins followed by substrate addition by spectrofluorometric analysis; format: cell-based
T3 sequence (P00375 whole entry): T2 sequence (Q920D2 whole entry) with L27P, Q85R, K99R, V115I, E155G, I170V

Dihydrofolate reductase [17] = molecular target: Dihydrofolate reductase (Lactobacillus casei, UniProt P00381); assay: Inhibition of DHFR in Lactobacillus casei using dihydrofolate as substrate preincubated for 5 mins followed by substrate addition by spectrofluorometric analysis; set-up: species or system Lacticaseibacillus casei
L1210 = assay: Cytotoxicity against mouse L1210 cells assessed as growth inhibition after 48 hrs by MTT assay; format: functional, cell-based; details: L1210, 48 h
[18] = Inhibition of DHFR in Crithidia oncopelti using dihydrofolate as substrate preincubated for 5 mins followed by substrate addition by spectrofluorometric analysis
Candida = assay: Antifungal activity against Candida clinical isolates after 24 hrs by microtiter method; format: functional

## CCn1c2ccccc2c2c3c(=O)[nH]c(NCCN(C)C)nc3ccc21
[1]
  IC50: 17000 nM

## CCC(CC)n1c(C)cc2c3c(N)nc(N)nc3ccc21
Dihydrofolate reductase [2]
  Ki: 0.0003 nM
[3]
  Tmax: 1.8 h
[4]
  half-life: 4 h
[5]
  Vd: 9.3 L/g
[6]
  Cmax: 170 ng/mL
[7]
  half-life: 2.8 h
[8]
  bioavailability: 49%
[9]
  GI50: 0.74 nM
Candida albicans
  MIC: 0.025 µg/mL (≈ 0.0882 µM)

## Nc1nc(N)c2c(ccc3[nH]ccc32)n1
Dihydrofolate reductase [2]
  Ki: 1 nM

## Cc1cc2c(ccc3nc(N)nc(N)c32)[nH]1
Human alphaherpesvirus 1
  IC50: 15000 nM

## CC(=O)N(C(C)=O)c1nc(N(C(C)=O)C(C)=O)c2c(ccc3c2ccn3Cc2ccccc2C(F)(F)F)n1
Plasmodium falciparum [10]
  IC50: 0.14 nM
Plasmodium falciparum [11]
  IC50: 0.046 nM
Plasmodium falciparum [12]
  IC50: 0.046 nM
[13]
  selectivity ratio: 80
Plasmodium falciparum [14]
  IC50: 0.16 nM

## N#Cc1ccc(Cn2ccc3c4c(N)nc(N)nc4ccc32)cc1
Dihydrofolate reductase [15]
  IC50: 2.1 nM
Dihydrofolate reductase [16]
  IC50: 4 nM
Dihydrofolate reductase [17]
  IC50: 6.4 nM
L1210
  IC50: 40 nM
[18]
  IC50: 0.7 nM

## Nc1nc(N)c2c(ccc3c2ccn3CC2CC2)n1
Candida
  MIC: 1.39 µg/mL (≈ 5.49 µM)
Candida albicans
  MIC: 1.39 µg/mL (≈ 5.49 µM)

## Nc1nc(N)c2c(ccc3c2ccn3Cc2ccccc2)n1
Candida
  MIC: 0.64 µg/mL (≈ 2.21 µM)
Candida albicans
  MIC: 0.64 µg/mL (≈ 2.21 µM)
